The record followed here is patent US6540999B1, “Immunomodulatory methods using Lewisx oligosacchardies” (President and Fellows of Harvard College, priority 1996, dated 2003).

Experiment [1] has as its system IgE response. Set-up: species or system mice. The following applies: mouse, in vivo.
The test system of experiment [2] is IgE response. Set-up: species or system mice. The following applies: mouse, in vivo. This is another data set of the same source.
Experiment [3] relates to IgE response. As to the kind of experiment: Serum IgE titers after intranasal administration, HSA as antigen. It is filed as in vivo. The note with it: coadministration with HSA, mice, FIG. 4A.
Experiment [4] deals with naive splenocytes, T cell, B cell and non-T, non-B spleen cell populations. The experiment is described as follows: IL-10 production in vitro by spleen cell subpopulations. It is filed as cell-based, CBA mice. Set-up: unit not given here. The text has this:
(§1) In this example, the types of cells responsive to the multimeric sugar conjugates, and the types of cytokines produced, either in vitro or in vivo, were investigated further. For the in vitro studies, naive splenocytes were isolated from CBA mice and fractionated into T cell, B cell and non-T, non-B spleen cell populations. B cell populations were defined by expression of the B220 surface marker (i.e., B220^+ cells). T cell populations were defined by expression of CD5 or Thy surface markers (i.e., CD5^+ or Thy+).

For experiment [5], the system named is Human PBMCs. The experiment is described as follows: Proliferation of human PBMCs from allergic or cancer patients (3H-thymidine uptake). Type of experiment: cell-based. The note with it: 3H-thymidine uptake at 90 hours; LPS 20 μg/ml, HSA and conjugates 100 μg/ml. The text has this:
(§2) Human PBMCs were obtained from: 1) an individual who was allergic to pollen; 2) an individual suffering from lung carcinoma and 3) an individual suffering from colon carcinoma.

The next experiment has as its system Granuloma macrophages. It is filed as cell-based, C57BL/6 mice.
For experiment [6], the system named is Human PBMCs. The experiment is described as follows: IL-10 production by human PBMCs from allergic or cancer patients (ELISA). It is filed as cell-based. Set-up: unit not given here. The following applies: 24 hours; LPS 20 μg/ml, HSA and conjugates 100 μg/ml.
Text: as §2

The test system of experiment [7] is naive splenocytes, T cell, B cell and non-T, non-B spleen cell populations. As to the kind of experiment: IFN-γ production in vitro by spleen cell subpopulations. It is filed as cell-based, CBA mice. Set-up: unit not given here.
Text: as §1

Where [8] appears, read: naive CBA splenocytes, unfractionated.

As to `CC(=O)N[C@H]1[C@H](O[C@H]2[C@@H](O)[C@@H](CO)O[C@@H](O[C@H]3[C@H](O)[C@@H](O)C(O)O[C@@H]3CO)[C@@H]2O)O[C@H](CO)[C@@H](O[C@@H]2O[C@H](CO)[C@H](O)[C@H](O)[C@H]2O)[C@@H]1O` (mixture of isomers) [free LNT, lacto-N-neotetraose], the “lowering of the total IgE response compared to administration of PLA2 alone” value in the experiment on IgE response [1] is “not”. For the same compound, in the experiment on IgE response [2], the “inhibition of the SEA-specific IgE response (in words)” value is on record as “significantly less effective than free LNFPIII” and the “inhibition of the total IgE response to SEA (in words)” value is recorded as “had a greater inhibitory effect”.

For lacto-N-fucopentaose III [free LNFPIII], in the experiment on IgE response [1], the “lowering of the total IgE response compared to administration of PLA2 alone” value is “approximately 70%” and the “reduction of the PLA2-specific IgE response” value was “approximately 40%”. In the experiment with IgE response [2], the “inhibition of the SEA-specific IgE response (in words)” value is listed as “marked decrease in the antigen-specific IgE response” and the “inhibition of the total IgE response to SEA (in words)” value is “only marginally inhibited”. Also, the “reduction in the levels of total IgE as compared to administration of HSA alone” value with IgE response [3] is reported as “approximately 60%”.

Regarding lipopolysaccharide [LPS], the “IL-10, B cells (B220+)” value in experiment [4] (B220+ cells) was 552. In addition, the “IL-10, Non-B (B220−)” value in experiment [4] (B220− cells) is 320. The “IL-10, T cells (CD5+)” value in experiment [4] (CD5+ cells) was determined as 264. The “IL-10, Non-T (CD5−)” value in experiment [4] (CD5− cells) is 430. Also, the “IL-10, T cells (Thy+)” value in experiment [4] (Thy+ cells) is on record as 72. Moreover, in experiment [4] (Thy− cells), the “IL-10, Non-T (Thy−)” value came to 430. Also, the “IL-10, Total Spleen” value in experiment [4] (setting [8]) was determined as 535. In the experiment on Human PBMCs [5], the “CPM, COLON CARCINOMA” value worked out at 222 CPM; the “CPM, LUNG CARCINOMA” value is on record as 232 CPM; the “CPM, POLLEN ALLERGIC” value is on record as 1946 CPM. Also, in the experiment with Granuloma macrophages, the “IL-10 LEVEL 24 HR” value was found to be 7864 pg/mL, the “IL-10 LEVEL 48 HR” value amounted to 6559 pg/mL and the “IL-10 LEVEL 72 HR” value was 4555 pg/mL. Besides, in the experiment on Human PBMCs [6], the “IL-10, COLON CARCINOMA” value is recorded as 8221; the “IL-10, LUNG CARCINOMA” value was 1400; the “IL-10, POLLEN ALLERGIC” value stood at 906. Further, the “IFN-γ, B cells (B220+)” value in experiment [7] (B220+ cells) was determined as 0. For the same compound, in experiment [7] (B220− cells), the “IFN-γ, Non-B (B220−)” value is given as 321. For the same compound, the “IFN-γ, T cells (CD5+)” value in experiment [7] (CD5+ cells) is 403. In experiment [7] (CD5− cells), the “IFN-γ, Non-T (CD5−)” value was found to be 0. Further, the “IFN-γ, T cells (Thy+)” value in experiment [7] (Thy+ cells) came to 617. Further, the “IFN-γ, Non-T (Thy−)” value in experiment [7] (Thy− cells) turned out to be 0. Moreover, the “IFN-γ, Total Spleen” value in experiment [7] (setting [8]) is given as 47.

For phospholipase A2 [PLA2], in the experiment on IgE response [1], the “PLA2-specific IgE response elicited (in words)” value is listed as “elicits a strong PLA2-specific IgE response” and the “total IgE response elicited (in words)” value is on record as “elicits a strong total IgE response”.
